Experimental data taken from patent EP1731520A1, “Pyrrolo[2,3-d]pyrimidine derivatives which are antagonists of adenosine A1, A2A, and A3” (OSI Pharmaceuticals, Inc., priority 1999, dated 2001).
Read-outs that look alike come from different tables or passages of the source.

Columns and labels:
[1] = target: human A2a receptor subtype (Homo sapiens, UniProt P29274); test: Adenosine 2a receptor subtype competition radioligand binding, [3H] CGS-21680, HEK293 membranes; details: for Ki-A2a (selectivity versus other three subtypes): Table 16, Adenosine A2a Receptor Selective Compounds
Chain of human A2a receptor subtype (P29274 whole entry): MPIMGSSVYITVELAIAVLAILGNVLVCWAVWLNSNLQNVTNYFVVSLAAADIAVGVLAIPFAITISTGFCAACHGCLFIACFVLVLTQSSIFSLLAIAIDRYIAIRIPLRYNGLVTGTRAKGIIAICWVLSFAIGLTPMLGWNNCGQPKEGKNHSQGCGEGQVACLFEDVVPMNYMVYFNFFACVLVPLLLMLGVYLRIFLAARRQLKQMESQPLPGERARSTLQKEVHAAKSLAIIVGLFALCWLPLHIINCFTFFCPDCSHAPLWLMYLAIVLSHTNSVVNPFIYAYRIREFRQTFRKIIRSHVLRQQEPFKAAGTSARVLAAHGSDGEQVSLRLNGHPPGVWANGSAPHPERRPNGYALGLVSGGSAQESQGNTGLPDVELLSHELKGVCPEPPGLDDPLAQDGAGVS

[2] = target: T1, human A2b receptor subtype (Homo sapiens, UniProt P29275); test: Adenosine 2b receptor subtype competition radioligand binding, [3H] DPCPX, HEK293 membranes
T1 sequence (P29275 1-332): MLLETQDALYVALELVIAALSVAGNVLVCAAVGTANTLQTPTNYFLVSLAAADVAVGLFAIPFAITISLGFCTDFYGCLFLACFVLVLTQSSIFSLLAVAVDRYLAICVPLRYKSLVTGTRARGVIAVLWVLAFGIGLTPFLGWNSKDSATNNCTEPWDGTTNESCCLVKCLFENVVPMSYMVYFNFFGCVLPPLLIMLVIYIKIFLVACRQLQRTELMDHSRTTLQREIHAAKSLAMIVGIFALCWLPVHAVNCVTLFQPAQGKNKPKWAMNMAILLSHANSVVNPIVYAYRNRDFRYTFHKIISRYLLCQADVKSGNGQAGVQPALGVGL

[3] = target: T2, human A3 receptor subtype (Homo sapiens, UniProt P0DMS8); test: Adenosine 3 receptor competition radioligand binding, [125I] AB-MECA, HEK293 membranes; details: for Ki-A3 (selectivity versus other three subtypes): Table 17, Adenosine A3 Receptor Selective Compounds
T2 sequence (P0DMS8 1-318): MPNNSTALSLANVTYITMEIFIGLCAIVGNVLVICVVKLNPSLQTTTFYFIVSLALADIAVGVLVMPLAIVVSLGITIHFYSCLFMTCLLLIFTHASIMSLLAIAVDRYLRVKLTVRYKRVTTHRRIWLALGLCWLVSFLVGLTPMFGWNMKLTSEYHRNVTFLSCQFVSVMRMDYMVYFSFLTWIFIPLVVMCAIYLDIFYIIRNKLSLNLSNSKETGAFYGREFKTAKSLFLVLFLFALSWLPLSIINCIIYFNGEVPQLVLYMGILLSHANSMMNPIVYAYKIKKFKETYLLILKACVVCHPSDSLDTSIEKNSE

[4] = target: human A1 receptor subtype (Homo sapiens, UniProt P30542)
Chain of human A1 receptor subtype (P30542 whole entry): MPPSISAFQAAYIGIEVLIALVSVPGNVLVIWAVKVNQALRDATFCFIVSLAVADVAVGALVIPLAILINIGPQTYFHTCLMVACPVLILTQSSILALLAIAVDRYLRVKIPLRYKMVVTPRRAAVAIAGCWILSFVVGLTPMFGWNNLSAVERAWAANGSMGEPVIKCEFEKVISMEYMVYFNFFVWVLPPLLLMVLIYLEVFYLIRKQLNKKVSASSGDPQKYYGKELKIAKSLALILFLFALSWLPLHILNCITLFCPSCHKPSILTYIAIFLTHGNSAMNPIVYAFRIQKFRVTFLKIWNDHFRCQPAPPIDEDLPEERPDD

human A2a receptor = details: read-out: Reported Ki; agonist; cited from earlier work
[5] = target: human adenosine A1 receptor (Homo sapiens, UniProt P30542); test: Yeast β-Galactosidase reporter gene assay (strain CY12660): inhibition of NECA-induced β-Galactosidase activity; details: read-out: Al Yeast IC50
Chain of human adenosine A1 receptor (P30542 whole entry): as above

human A3 receptor = target: T3, human A3 receptor (Homo sapiens, UniProt P0DMS8); test: Displacement binding of [3H]CPX, yeast membranes expressing hA3R
T3 sequence (P0DMS8 1-318): T2 sequence (P0DMS8 1-318)

[6] = tested on: human A1 adenosine receptor; details: synthetic agonist; cited from earlier work
[7] = read-out: Binding Ki (nM) A2b, Table 13
[8] = read-out: Binding Ki (nM) A2a, Table 13

For COC(=O)C(C)(C)NCc1cc2c(N3CCC[C@@H]3CO)nc(-c3ccccc3)nc2[nH]1 [Compound 1606], the “Ki-A2a (selectivity versus other three subtypes)” value [1] was “* (at least 5 times more selective than other three subtypes.)”.
O[C@H]1CC[C@H](Nc2nc(-c3cccc(F)c3)nc3[nH]ccc23)CC1 [Compound 1319, 4-(trans-4-hydroxycyclohexyl)amino-2-(3-fluorophenyl)-7H-pyrrolo [2,3d] pyrimidine] gave a Ki [2] of 802 nM, a Ki [1] of 206 nM and a Ki [3] of 270 nM.
With O[C@H]1CC[C@H](Nc2nc(-c3ccccc3)nc3[nH]ccc23)CC1 [Compound 1318] the Ki [2] was 2310 ± 926 nM and the Ki [3] was 630 ± 76 nM.
For OCC1CCCN(c2nc(-c3ccncc3)nc3[nH]ccc23)C1 (stereo not drawn) [Compound 1607], the “Ki-A2a (selectivity versus other three subtypes)” value [1] was “* (at least 5 times more selective than other three subtypes.)”.
For O[C@H]1CC[C@H](Nc2nc(-c3ccncc3)nc3[nH]ccc23)CC1 [Compound 1321, 4-(trans-4-hydroxycyclohexyl)amino-2-(4-pyridyl)-7H-pyrrolo[2,3d]pyrimidine], the Ki [2] was 1030 nM, the Ki [1] was 131 nM and the activity at 10 µM ([3]; read-out: % activity @ 10 µM, A3) was 54%.
With Cc1[nH]c2nc(-c3ccccc3)nc(NCCNC(=O)C3(N)CC3)c2c1C [Compound 1313] the “% activity @ 10 µM, A2a” value ([1]; Table 13, in %, 10 µM) was 65% and the “% activity @ 10 µM, A1” value ([4]; Table 13, in %, 10 µM) was 30%.
In the case of NC(=O)[C@H]1CCCN1c1nc(-c2ccncc2)nc2[nH]ccc12 [Compound 1602], the “Ki-A2a (selectivity versus other three subtypes)” value [1] is reported as “* (at least 5 times more selective than other three subtypes.)”.
With c1ccc(-c2nc(NCCc3cnc[nH]3)c3cc[nH]c3n2)cc1 [Compound 1720, [2-(3H-Imidazol-4-yl)-ethyl]-(2-phenyl-7H-pyrrolo[2,3-d]pyrimidin-4-yl)-amine] the “A3 receptor binding affinity relative to reference compound 1308” value ([3]; competition radio ligand binding) was “greater than 10 times”.
With CCN(CC)C(=O)NCCNc1nc(-c2ccccc2)nc2[nH]c(C)c(C)c12 [Compound 1701] the “Ki-A3 (selectivity versus other three subtypes)” value [3] was “* (at least 10 times more selective than other three subtypes.)”.
In the case of Cc1[nH]c2nc(-c3ccsc3)nc(N[C@H]3CC[C@H](O)CC3)c2c1C [Compound 704], the IC50 ([5]; Table 7, Effect of C2-Substituent) is reported as 297 nM and the Ki ([4]; read-out: Al Binding Ki, Table 7, Effect of C2-Substituent) is reported as 61.1 nM.
In the case of Cc1[nH]c2nc(-c3ccccc3)nc(NCCCNC(=O)CN)c2c1C [Compound 1316], the Ki [2, 7] is reported as 710 nM, the Ki [1, 8] is reported as 710 nM and the Ki [3] is reported as 97 nM. For the same molecule, the “Ki-A3 (selectivity versus other three subtypes)” value [3] was “* (at least 10 times more selective than other three subtypes.)”.
For NC(=O)C(Cc1ccccc1)Nc1nc(-c2ccccc2)nc2[nH]c(-c3ccccc3)cc12 (stereo not drawn) [Compound 1710], the “Ki-A3 (selectivity versus other three subtypes)” value [3] was “* (at least 10 times more selective than other three subtypes.)”.
Work on Nc1nc2ccc(Cl)cc2c2nc(-c3ccco3)nn12 [CGS-15943] yielded an IC50 (human A3 receptor) of 55.5 nM.
In the case of CC(=O)NCCNc1nc(-c2ccccc2)nc2[nH]c(CNc3ccccc3)cc12 [Compound 1404], the Ki ([1]; read-out: Binding Data Ki (nM) A2a, Table 14) is reported as 31 nM.
With CC(=O)NCCNc1nc(-c2ccccc2)nc2[nH]c(CN3CCC[C@H]3CNc3ccccc3)cc12 [Compound 1713] the “Ki-A3 (selectivity versus other three subtypes)” value [3] was “* (at least 10 times more selective than other three subtypes.)”.
With c1ccc(-c2cc3c(N4CCNCC4)nc(-c4ccncc4)nc3[nH]2)cc1 [Compound 1604] the “Ki-A2a (selectivity versus other three subtypes)” value [1] was “* (at least 5 times more selective than other three subtypes.)”.
In the case of OC[C@H]1CCCN1c1nc(-c2ccccc2)nc2[nH]ccc12 [Compound 1603], the “Ki-A2a (selectivity versus other three subtypes)” value [1] is reported as “* (at least 5 times more selective than other three subtypes.)”.
In the case of NC(=O)CC1CCN(c2nc(-c3ccccc3)nc3[nH]c(COc4cccc(Cl)c4)cc23)C1 (stereo not drawn) [Compound 1717], the “Ki-A3 (selectivity versus other three subtypes)” value [3] is reported as “* (at least 10 times more selective than other three subtypes.)”.
Work on CNC(=O)NCCCNc1nc(-c2ccccc2)nc2[nH]c(C)c(C)c12 [Compound 1310] yielded an activity at 10 µM ([1]; read-out: % activity @ 10 µM, A2a) of 76%.
In the case of COC(=O)CC1CCN(c2nc(-c3ccccc3)nc3[nH]c(COc4cccc(Cl)c4)cc23)C1 (stereo not drawn) [Compound 1716], the “Ki-A3 (selectivity versus other three subtypes)” value [3] is reported as “* (at least 10 times more selective than other three subtypes.)”.
For Cc1[nH]c2nc(-c3ccccc3)nc(NCCCO)c2c1C [Compound 1015], the IC50 ([5]; Table 10, Effect of N6-Substituent) was 3710 nM.
In the case of O=C(NCCNc1nc(-c2ccccc2)nc2[nH]ccc12)c1ccc[nH]1 [Compound 1707], the “Ki-A3 (selectivity versus other three subtypes)” value [3] is reported as “* (at least 10 times more selective than other three subtypes.)”.
In the case of CC(=O)NCCNc1nc(-c2ccccc2)nc2[nH]c(C)c(C)c12 [Compound 1300], the Ki [1, 8] is reported as 18 to 48.6 nM.
In the case of Cc1[nH]c2nc(-c3ccccc3)nc(NCCCNC(=O)CCN)c2c1C [Compound 1315], the Ki [2, 7] is reported as 3.4 nM, the Ki [1, 8] is reported as 720 nM and the Ki ([3]; read-out: Binding Ki (nM) A3, Table 13) is reported as 507 nM. The Ki ([4]; read-out: Binding Ki (nM) A1, Table 13, Profile of Selective Adenosine Antagonists) was 75 nM.
With NC(=O)[C@H]1CCCN1c1nc(-c2cccc(F)c2)nc2[nH]ccc12 [Compound 1600] the “Ki-A2a (selectivity versus other three subtypes)” value [1] was “* (at least 5 times more selective than other three subtypes.)”.
For CC(=O)NCCNc1nc(-c2ccncc2)nc2[nH]c(C)c(CN(C)Cc3ccccc3)c12 [Compound 1608], the “Ki-A2a (selectivity versus other three subtypes)” value [1] was “* (at least 5 times more selective than other three subtypes.)”.
For OCC1CCCN(c2nc(-c3ccccc3)nc3[nH]c(COc4cccc(Cl)c4)cc23)C1 (stereo not drawn) [Compound 1718], the “Ki-A3 (selectivity versus other three subtypes)” value [3] was “* (at least 10 times more selective than other three subtypes.)”.
For O=C1NCCN1CCNc1nc(-c2ccccc2)nc2[nH]c(-c3ccccc3)cc12 [Compound 1708], the “Ki-A3 (selectivity versus other three subtypes)” value [3] was “* (at least 10 times more selective than other three subtypes.)”.
For OC1CCN(c2nc(-c3ccccc3)nc3[nH]c(-c4ccccc4)cc23)C1 (stereo not drawn) [Compound 1703], the “Ki-A3 (selectivity versus other three subtypes)” value [3] was “* (at least 10 times more selective than other three subtypes.)”.
For CC(C)C(Nc1nc(-c2ccccc2)nc2[nH]c(-c3ccccc3)cc12)C(N)=O (stereo not drawn) [Compound 1709], the “Ki-A3 (selectivity versus other three subtypes)” value [3] was “* (at least 10 times more selective than other three subtypes.)”.
With CNC(=O)NCCCNc1nc(-c2ccc(Cl)cc2)nc2[nH]ccc12 [Compound 1719] the “Ki-A3 (selectivity versus other three subtypes)” value [3] was “* (at least 10 times more selective than other three subtypes.)”.
With OC[C@H]1C[C@@H](O)CN1c1nc(-c2ccncc2)nc2[nH]ccc12 [Compound 1605] the “Ki-A2a (selectivity versus other three subtypes)” value [1] was “* (at least 5 times more selective than other three subtypes.)”.
For CC(Cc1ccccc1)Nc1ncnc2c1ncn2[C@@H]1O[C@H](CO)[C@@H](O)[C@H]1O (single isomer, unassigned; (-)) [PIA, (-)-N6-(2-phenylisopropyl)-adenosine], the reported affinity [6] is given as “approximately 50 nM”.
In the case of OC[C@H]1CCCN1c1nc(-c2ccncc2)nc2[nH]ccc12 [Compound 1601], the “Ki-A2a (selectivity versus other three subtypes)” value [1] is reported as “* (at least 5 times more selective than other three subtypes.)”.
With O[C@H]1CC[C@H](Nc2nc(-c3cccc(Cl)c3)nc3[nH]ccc23)CC1 [Compound 1320, 4-(trans-4-hydroxycyclohexyl)amino-2-(3-chlorophenyl)-7H-pyrrolo[2,3d] pyrimidine] the Ki [2] was 530 nM, the Ki [1] was 531 nM and the Ki [3] was 419 nM.
